Data on 15 compounds can be found in BindingDB's records for doi:10.1016/j.bioorg.2016.03.001 (Jishou University, 2016).

What is called pIC50 is the negative decadic logarithm of the IC50, by convention in mol/L. High values mean a low IC50, low ones a high IC50.

pIC50: −log10 of the molar value.

Alpha-glucosidase MAL12, sequence (P53341 whole entry): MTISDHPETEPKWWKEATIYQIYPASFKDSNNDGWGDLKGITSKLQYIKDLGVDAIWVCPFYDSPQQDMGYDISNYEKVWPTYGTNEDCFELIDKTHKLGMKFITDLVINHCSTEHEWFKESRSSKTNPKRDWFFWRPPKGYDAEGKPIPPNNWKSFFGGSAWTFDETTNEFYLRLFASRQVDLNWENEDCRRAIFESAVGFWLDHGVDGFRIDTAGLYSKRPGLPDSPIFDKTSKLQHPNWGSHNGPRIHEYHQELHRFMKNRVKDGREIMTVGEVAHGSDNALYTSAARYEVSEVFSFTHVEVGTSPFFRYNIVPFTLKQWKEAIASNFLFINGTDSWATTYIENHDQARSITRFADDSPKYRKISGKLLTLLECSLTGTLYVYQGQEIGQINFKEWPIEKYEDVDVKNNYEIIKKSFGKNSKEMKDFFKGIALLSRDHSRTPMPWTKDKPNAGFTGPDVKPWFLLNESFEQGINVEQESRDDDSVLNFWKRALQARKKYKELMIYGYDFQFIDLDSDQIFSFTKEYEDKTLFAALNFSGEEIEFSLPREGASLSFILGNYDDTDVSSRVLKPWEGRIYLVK

For this test, the target named is Alpha-glucosidase MAL12 (Saccharomyces cerevisiae (strain ATCC 204508 / S288c), UniProt P53341). Kind of test: In vitro Assay of alpha-Glucosidasee Inhibitory Activity. Conditions: pH 6.8. The protocol:
The test compounds were dissolved in DMSO to prepare the required distributing concentration. α-Glucosidase inhibitory activity was assayed by using 50 mM phosphate buffer (pH 6.8) at 37 °C. The enzymatic reaction mixture composed of 20 µL α-glucosidase (0.2 U), 10 µL of various concentrations of test compounds and 140 µL of phosphate buffer was incubated at 37 °C for 10 min. Then 0.5 mM p-nitrophenyl α-D-glucopyranoside (30 µL) was added to the mixture as a substrate. After further incubation at 37 °C for 30 min. The absorbance was measured spectrophotometrically at 405 nm. The sample solution was replaced by DMSO as a control. Acarbose was used as a positive control. All experiments were carried out in triplicates.
As for `CC(C)(C)c1cc(/C=N/NC(=O)c2nc(-c3cc4ccccc4oc3=O)cs2)c(O)c(C(C)(C)C)c1` [(E)-N'-(3,5-Di-tert-butyl-2-hydroxybenzylidene)-4-(2-oxo-2Hchromen-3-yl)thiazole-2-carbohydrazide (7d)], the pIC50 was 4.99.

`O=C(N/N=C/c1cccc(F)c1)c1nc(-c2cc3ccccc3oc2=O)cs1` [(E)-N'-(3-Fluorobenzylidene)-4-(2-oxo-2H-chromen-3-yl)thiazole-2-carbohydrazide (7q)] had a pIC50 of 4.65.

`O=C(N/N=C/c1ccc(C(F)(F)F)cc1)c1nc(-c2cc3ccccc3oc2=O)cs1` [(E)-4-(2-Oxo-2H-chromen-3-yl)-N'-(4-(trifluoromethyl)benzylidene)thiazole-2-carbohydrazide (7o)] showed a negative logarithm of the IC50 (pIC50) of 4.80. The value for `O=C(N/N=C/c1cccc(Br)c1)c1nc(-c2cc3ccccc3oc2=O)cs1` [(E)-N'-(3-bromobenzylidene)-4-(2-oxo-2H-chromen-3-yl)thiazole-2-carbohydrazide (7r)] was 4.85; that for `O=C(N/N=C/c1ccc(O)cc1)c1nc(-c2cc3ccccc3oc2=O)cs1` [(E)-N'-(4-Hydroxybenzylidene)-4-(2-oxo-2H-chromen-3-yl)thiazole-2-carbohydrazide (7c)] was 4.60.

Compound `O=C(N/N=C/c1ccccc1F)c1nc(-c2cc3ccccc3oc2=O)cs1` [(E)-N'-(2-Fluorobenzylidene)-4-(2-oxo-2H-chromen-3-yl)thiazole-2-carbohydrazide (7p)] gave a pIC50 of 4.63. The value for `COc1ccc(/C=N/NC(=O)c2nc(-c3cc4ccccc4oc3=O)cs2)c(O)c1` [(E)-N'-(2-Hydroxy-4-methoxybenzylidene)-4-(2-oxo-2Hchromen-3-yl)thiazole-2-carbohydrazide (7i)] was 4.52; that for `COc1ccccc1/C=N/NC(=O)c1nc(-c2cc3ccccc3oc2=O)cs1` [(E)-N'-(2-Methoxybenzylidene)-4-(2-oxo-2H-chromen-3-yl)thiazole-2-carbohydrazide (7s)] was 4.19; that for `O=C(N/N=C/c1cc(Cl)ccc1O)c1nc(-c2cc3ccccc3oc2=O)cs1` [(E)-N'-(5-Chloro-2-hydroxybenzylidene)-4-(2-oxo-2Hchromen-3-yl)thiazole-2-carbohydrazide (7h)] was 5.08.

In turn, `O=C(N/N=C/c1cccc(Cl)c1)c1nc(-c2cc3ccccc3oc2=O)cs1` [(E)-N'-(3-Chlorobenzylidene)-4-(2-oxo-2H-chromen-3-yl)thiazole-2-carbohydrazide (7n)] showed a pIC50 of 4.92. The value for `O=C(N/N=C/c1ccc(Cl)cc1)c1nc(-c2cc3ccccc3oc2=O)cs1` [(E)-N'-(4-Chlorobenzylidene)-4-(2-oxo-2H-chromen-3-yl)thiazole-2-carbohydrazide (7m)] was 4.98; that for `O=C(N/N=C/c1ccc(O)c(F)c1)c1nc(-c2cc3ccccc3oc2=O)cs1` [(E)-N'-(3-Fluoro-4-hydroxybenzylidene)-4-(2-oxo-2Hchromen-3-yl)thiazole-2-carbohydrazide (7g)] was 4.78.

With `O=C(N/N=C/c1ccc(O)c(O)c1)c1nc(-c2cc3ccccc3oc2=O)cs1` [(E)-N'-(3,4-Dihydroxybenzylidene)-4-(2-oxo-2H-chromen-3-yl)thiazole-2-carbohydrazide (7k)], the negative-log IC50 (pIC50) was 4.74. `COc1ccc(/C=N/NC(=O)c2nc(-c3cc4ccccc4oc3=O)cs2)cc1` [(E)-N'-(4-Methoxybenzylidene)-4-(2-oxo-2H-chromen-3-yl)thiazole-2-carbohydrazide (7a)] gave a pIC50 of 4.09. As for `O=C(N/N=C/c1ccccc1O)c1nc(-c2cc3ccccc3oc2=O)cs1` [(E)-N'-(2-Hydroxybenzylidene)-4-(2-oxo-2H-chromen-3-yl)thiazole-2-carbohydrazide (7b)], the negative logarithm of the IC50 (pIC50) was 4.43.
